In patent US12257247B2 (Monte Rosa Therapeutics AG, priority 2023, dated 2025) one finds Dmax and DC50 data, which are given here for six compounds.

Read-outs that look alike come from different tables or passages of the source.

The test has as its target T1, VAV1 (Homo sapiens, UniProt P15498+Q96SW2).
T1 construct: A heterozygous VAV1 C-terminal HiBiT knock-in pool was generated at Monte Rosa Therapeutics from a clonal Jurkat cell; endogenous in cells; host or cells: Jurkat clone stably expressing LgBiT, homozygous GSPT1-G575N; heterozygous VAV1-HiBiT knock-in pool
As to the kind of experiment: VAV1 degradation activity, VAV1-HiBiT knock-in Jurkat luminescence assay (Example A, Table 1). The class given is cell-based. Particulars: VAV1-HiBiT knock-in Jurkat cells, luminescence read at 6 and 24 hours after compound addition; for Dmax: Jurkat. The essentials:
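Luminescence was measured at 6 and 24 h after adding compound (10 μM stock) to VAV1-HiBiT knock-in Jurkat cells, which had been pre-incubated ~16 h at 37° C. in RPMI/10% FBS containing Endurazine. EC50 values came from control-normalised responses fitted to a 3-parameter logistic model with hillslope fixed at 1.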
In general terms: HiBiT is a short tag that completes a luciferase, so light tracks the accessible tagged protein.

[1] abbreviates: read-out: VAV1 DC50 (nM), class.

Broadly, the Dmax is the largest share of the target that was removed. What is called DC50 is the concentration giving 50% degradation. In the case of `O=C1CCC(c2cccc(-c3ccc4c(c3)CC(=O)N4Cc3cocn3)c2Cl)C(=O)N1` (stereo not drawn) [Compound 505, 3-(2-chloro-3-(1-(oxazol-4-ylmethyl)-2-oxoindolin-5-yl)phenyl)piperidine-2,6-dione], the Dmax is, setting by setting: (read-out: VAV1 Dmax %) 80.7%; (read-out: VAV1 Dmax %, class) 60 to 90%. Moreover, the DC50 runs as follows: (read-out: VAV1 DC50) 86.9 nM; under setting [1], ≤ 100 nM.
The corresponding values for `O=C1CCC(c2cccc(-c3ccc4c(c3)CC(=O)N4CC3CC3)c2Cl)C(=O)N1` (stereo not drawn) [Compound 506, 3-(2-chloro-3-(1-(cyclopropylmethyl)-2-oxoindolin-5-yl)phenyl)piperidine-2,6-dione] are 63.7%, 60 to 90%, 1770 nM and > 1000 nM.
On the same counts, the results for `Cn1ccc(Cn2c(=O)oc3cc(-c4cccc(C5CCC(=O)NC5=O)c4Cl)ccc32)n1` (stereo not drawn) [Compound 507, 3-(2-chloro-3-(3-((1-methyl-1H-pyrazol-3-yl)methyl)-2-oxo-2,3-dihydrobenzo[d]oxazol-6-yl)phenyl)piperidine-2,6-dione] are 91.8%, > 90%, 28.6 nM and ≤ 100 nM.
On the same counts, the results for `Cn1cncc1Cn1ncc2cc(-c3cccc(C4CCC(=O)NC4=O)c3Cl)ccc21` (stereo not drawn) [Compound 508, 3-(2-chloro-3-(1-((1-methyl-1H-imidazol-5-yl)methyl)-1H-indazol-5-yl)phenyl)piperidine-2,6-dione] are 92%, > 90%, 63.2 nM and ≤ 100 nM.
For the compound `Cn1cccc(N2CCc3cc(-c4cccc(C5CCC(=O)NC5=O)c4Cl)ccc32)c1=O` (stereo not drawn) [Compound 509, 3-(2-chloro-3-(1-(1-methyl-2-oxo-1,2-dihydropyridin-3-yl)indolin-5-yl)phenyl)piperidine-2,6-dione], the Dmax is 97.8% (read-out: VAV1 Dmax %) and > 90% (read-out: VAV1 Dmax %, class). Also, the DC50 was 3.85 nM (read-out: VAV1 DC50) and ≤ 100 nM under setting [1].
On the same counts, the results for `Cn1ccc(Cc2noc3cc(-c4cccc(C5CCC(=O)NC5=O)c4Cl)ccc23)n1` (stereo not drawn) [Compound 510, 3-(2-chloro-3-(3-((1-methyl-1H-pyrazol-3-yl)methyl)benzo[d]isoxazol-6-yl)phenyl)piperidine-2,6-dione] are 89.2%, 60 to 90%, 78.6 nM and ≤ 100 nM.
